Test: refractive index (Na D-line) (dimensionless); mn = molality of the nth substance listed, in mol/kg
Settings: 101 kPa, Liquid, Standard Abbe refractometry

N.N.O=S(=O)(O)O [ammonium sulfate] + O
refractive index
Settings	288.15 K	298.15 K	308.15 K	318.15 K
m1 = 0.2725	1.33934	1.33813	1.33696	1.33544
m1 = 0.3995	1.34174	1.3408	1.33941	1.33806
m1 = 0.4876	1.34348	1.34227	1.34098	1.33956
m1 = 0.8025	1.34905	1.34798	1.3467	1.34521
m1 = 1.198	1.35554	1.35434	1.353	1.35156
m1 = 1.604	1.3614	1.36025	1.35888	1.3574
m1 = 1.992	1.36659	1.36535	1.36402	1.36252
m1 = 2.381	1.37134	1.37008	1.36878	1.36733
m1 = 2.801	1.37588	1.37472	1.37338	1.37211
m1 = 3.2	1.38006	1.37873	1.37738	1.37611
m1 = 3.619	1.38383	1.38259	1.38126	1.38009
m1 = 3.997	1.38708	1.38596	1.38446	1.38325
m1 = 4.396	1.39018	1.38897	1.3876	1.38647
m1 = 4.763	1.39286	1.3917	1.39031	1.38922
m1 = 5.181	1.3957	1.39451	1.3932	1.39197
m1 = 5.6	1.39836	1.39715	1.39584	1.39461
m1 = 5.876	–	–	1.3975	1.39618
m1 = 6.328	–	–	–	1.3983

O=S(=O)([O-])[O-].[K+].[K+] [potassium sulfate] + O
refractive index
Settings	288.15 K	298.15 K	308.15 K	318.15 K
m1 = 0.0456	1.33447	1.33359	1.33228	1.33072
m1 = 0.1387	1.33636	1.33552	1.33411	1.33251
m1 = 0.2502	1.33866	1.33771	1.33625	1.33466
m1 = 0.3409	1.34035	1.33945	1.33786	1.33626
m1 = 0.4174	1.34183	1.34071	1.33927	1.33763
m1 = 0.503	1.3433	1.34227	1.34077	1.33906
m1 = 0.5093	1.34341	1.3423	1.34084	1.3392
m1 = 0.5703	1.34451	1.34337	1.34186	1.34022
m1 = 0.6509	–	1.34476	1.34324	1.34151
m1 = 0.7435	–	–	1.34478	1.34301
m1 = 0.8106	–	–	–	1.34404
m1 = 0.8605	–	–	–	1.34488
m1 = 0.9049	–	–	–	1.34557

O=S(=O)([O-])[O-].[Na+].[Na+] [sodium sulfate] + O
refractive index
Settings	288.15 K	298.15 K	308.15 K	318.15 K
m1 = 0.1002	1.33566	1.33473	1.33342	1.33185
m1 = 0.1938	1.33757	1.33653	1.33518	1.33378
m1 = 0.477	1.34311	1.34187	1.34052	1.33896
m1 = 0.7055	1.34719	1.34585	1.34434	1.34278
m1 = 0.8578	1.34983	1.34855	1.34695	1.34531
m1 = 0.9866	–	1.35058	1.34904	1.34742
m1 = 1.206	–	1.35377	1.3522	1.35057
m1 = 1.59	–	1.35915	1.35746	1.35598
m1 = 1.727	–	1.36096	1.35931	1.35778
m1 = 1.992	–	–	1.36271	1.36102
m1 = 2.237	–	–	1.36573	1.36396
m1 = 2.532	–	–	1.36884	1.36711
m1 = 2.681	–	–	1.37046	1.36857
m1 = 2.805	–	–	1.37172	1.36992
m1 = 3.053	–	–	1.37411	1.37246
m1 = 3.219	–	–	1.37569	1.37386
m1 = 3.305	–	–	1.37649	1.3747
m1 = 3.423	–	–	1.37756	–

O [water] + N.N.O=S(=O)(O)O
m2 = 0
Settings	refractive index
288.15 K	1.33339
298.15 K	1.33248
308.15 K	1.33128
318.15 K	1.32979

O [water] + O=S(=O)([O-])[O-].[K+].[K+]
m2 = 0
Settings	refractive index
288.15 K	1.33339
298.15 K	1.33248
308.15 K	1.33128
318.15 K	1.32979

O [water] + O=S(=O)([O-])[O-].[Na+].[Na+]
m2 = 0
Settings	refractive index
288.15 K	1.33339
298.15 K	1.33248
308.15 K	1.33128
318.15 K	1.32979

— the NIST ThermoML archive (doi:10.1021/je9010129)
